Test results as given in ChEMBL document CHEMBL3431459, “Roche carnitine palmitoyltransferase modulator screening data (supplementary data associated with the publication CHEMBL2216752)”.
≈ marks a conversion by molar mass, not a printed value.

Assays:
[1] = target: T1, Carnitine O-palmitoyltransferase 2, mitochondrial (Homo sapiens, UniProt P23786); assay: (§1) SUPPLEMENTARY: Inhibition of Carnitine palmitoyltransferase 2
T1 sequence (P23786 whole entry): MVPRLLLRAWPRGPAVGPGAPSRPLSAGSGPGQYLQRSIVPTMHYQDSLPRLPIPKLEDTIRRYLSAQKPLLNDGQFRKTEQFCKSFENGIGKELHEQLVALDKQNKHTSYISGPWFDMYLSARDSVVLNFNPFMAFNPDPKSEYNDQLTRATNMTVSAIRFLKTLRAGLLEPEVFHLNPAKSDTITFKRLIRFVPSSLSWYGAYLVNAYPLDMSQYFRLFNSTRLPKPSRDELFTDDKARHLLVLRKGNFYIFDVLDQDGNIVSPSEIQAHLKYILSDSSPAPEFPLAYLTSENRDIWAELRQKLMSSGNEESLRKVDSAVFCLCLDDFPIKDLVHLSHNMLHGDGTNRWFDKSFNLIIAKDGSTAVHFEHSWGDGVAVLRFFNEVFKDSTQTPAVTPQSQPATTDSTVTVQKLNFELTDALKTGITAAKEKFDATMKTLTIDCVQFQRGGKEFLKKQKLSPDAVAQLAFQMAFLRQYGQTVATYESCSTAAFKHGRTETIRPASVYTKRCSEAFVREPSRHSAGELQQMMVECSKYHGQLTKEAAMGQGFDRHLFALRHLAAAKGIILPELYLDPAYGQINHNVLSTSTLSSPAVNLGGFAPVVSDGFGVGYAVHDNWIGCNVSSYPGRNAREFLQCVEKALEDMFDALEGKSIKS

[2] = target: T2, Carnitine O-palmitoyltransferase 2, mitochondrial (Rattus norvegicus, UniProt P18886); assay: as §1
T2 sequence (P18886 whole entry): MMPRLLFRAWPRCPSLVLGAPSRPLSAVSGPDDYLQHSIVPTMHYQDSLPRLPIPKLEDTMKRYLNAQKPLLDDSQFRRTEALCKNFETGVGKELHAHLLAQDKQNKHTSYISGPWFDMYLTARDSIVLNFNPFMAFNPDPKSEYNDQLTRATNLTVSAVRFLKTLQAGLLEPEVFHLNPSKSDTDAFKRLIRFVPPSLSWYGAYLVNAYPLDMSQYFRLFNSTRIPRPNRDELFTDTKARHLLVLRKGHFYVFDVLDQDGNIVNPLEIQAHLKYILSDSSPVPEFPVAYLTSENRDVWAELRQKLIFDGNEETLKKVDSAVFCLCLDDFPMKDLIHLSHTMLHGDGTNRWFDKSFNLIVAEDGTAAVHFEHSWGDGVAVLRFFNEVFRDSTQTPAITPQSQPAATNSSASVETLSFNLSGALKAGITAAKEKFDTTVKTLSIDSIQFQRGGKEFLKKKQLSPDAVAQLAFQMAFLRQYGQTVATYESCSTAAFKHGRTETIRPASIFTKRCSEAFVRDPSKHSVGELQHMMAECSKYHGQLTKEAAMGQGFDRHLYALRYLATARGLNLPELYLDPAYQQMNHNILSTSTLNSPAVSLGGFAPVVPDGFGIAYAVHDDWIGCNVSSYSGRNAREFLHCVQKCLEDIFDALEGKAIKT

[3] = SUPPLEMENTARY: Lyophilisation Solubility Assay (LYSA); type: physicochemical; conditions: read-out: Kinetic_solubility
[4] = SUPPLEMENTARY: PAMPA permeability assay; type: physicochemical; conditions: read-out: Permeability
[5] = target: T3, Carnitine O-palmitoyltransferase 1, muscle isoform (Homo sapiens, UniProt Q92523); assay: SUPPLEMENTARY: Inhibition of Carnitine palmitoyltransferase 1, muscle isoform; design: species or system Muscle tissue
T3 sequence (Q92523 whole entry): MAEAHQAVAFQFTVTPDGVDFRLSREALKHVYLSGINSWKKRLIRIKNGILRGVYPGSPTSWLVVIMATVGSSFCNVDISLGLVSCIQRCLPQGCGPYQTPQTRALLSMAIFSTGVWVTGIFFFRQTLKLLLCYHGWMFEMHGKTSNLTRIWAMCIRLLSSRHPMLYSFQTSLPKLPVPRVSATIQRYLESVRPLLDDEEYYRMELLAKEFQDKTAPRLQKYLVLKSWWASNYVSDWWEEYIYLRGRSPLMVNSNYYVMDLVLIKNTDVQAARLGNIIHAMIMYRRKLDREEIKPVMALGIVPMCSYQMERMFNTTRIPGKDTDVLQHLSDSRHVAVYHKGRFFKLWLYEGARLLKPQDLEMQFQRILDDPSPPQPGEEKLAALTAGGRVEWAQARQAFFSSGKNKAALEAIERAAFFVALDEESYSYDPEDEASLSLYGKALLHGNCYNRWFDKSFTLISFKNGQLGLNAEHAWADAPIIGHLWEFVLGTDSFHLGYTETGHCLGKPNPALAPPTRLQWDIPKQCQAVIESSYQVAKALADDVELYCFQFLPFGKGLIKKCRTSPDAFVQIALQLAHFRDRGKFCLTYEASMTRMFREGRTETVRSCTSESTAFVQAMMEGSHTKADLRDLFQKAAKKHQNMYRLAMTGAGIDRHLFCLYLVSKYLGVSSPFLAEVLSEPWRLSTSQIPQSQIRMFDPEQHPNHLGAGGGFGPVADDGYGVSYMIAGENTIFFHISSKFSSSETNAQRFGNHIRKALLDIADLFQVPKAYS

[6] = target: T4, Carnitine O-palmitoyltransferase 1, liver isoform (Rattus norvegicus, UniProt P32198); assay: (§2) SUPPLEMENTARY: Inhibition of Carnitine palmitoyltransferase 1, liver isoform
T4 sequence (P32198 whole entry): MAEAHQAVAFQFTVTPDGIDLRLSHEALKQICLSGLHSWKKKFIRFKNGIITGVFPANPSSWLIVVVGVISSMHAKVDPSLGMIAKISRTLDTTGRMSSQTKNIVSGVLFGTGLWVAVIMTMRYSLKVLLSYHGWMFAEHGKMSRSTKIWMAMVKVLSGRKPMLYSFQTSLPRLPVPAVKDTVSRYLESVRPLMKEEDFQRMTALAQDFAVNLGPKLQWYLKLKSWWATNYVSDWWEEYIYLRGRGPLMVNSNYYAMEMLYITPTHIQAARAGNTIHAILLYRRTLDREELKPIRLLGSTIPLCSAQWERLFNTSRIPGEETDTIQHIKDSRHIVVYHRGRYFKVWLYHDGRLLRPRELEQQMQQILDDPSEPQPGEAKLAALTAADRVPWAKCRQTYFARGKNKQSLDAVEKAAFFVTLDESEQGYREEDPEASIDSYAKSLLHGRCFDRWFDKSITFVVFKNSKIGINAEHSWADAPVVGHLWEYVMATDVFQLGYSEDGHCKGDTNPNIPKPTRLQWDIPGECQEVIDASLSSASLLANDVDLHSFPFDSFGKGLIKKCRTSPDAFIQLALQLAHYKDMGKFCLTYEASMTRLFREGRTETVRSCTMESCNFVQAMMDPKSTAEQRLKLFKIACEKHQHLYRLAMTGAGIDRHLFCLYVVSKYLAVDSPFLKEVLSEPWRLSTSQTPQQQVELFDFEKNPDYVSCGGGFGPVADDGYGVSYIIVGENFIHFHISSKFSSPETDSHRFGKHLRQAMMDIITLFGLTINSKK

[7] = target: T5, Carnitine O-palmitoyltransferase 1, liver isoform (Homo sapiens, UniProt P50416); assay: as §2
T5 sequence (P50416 whole entry): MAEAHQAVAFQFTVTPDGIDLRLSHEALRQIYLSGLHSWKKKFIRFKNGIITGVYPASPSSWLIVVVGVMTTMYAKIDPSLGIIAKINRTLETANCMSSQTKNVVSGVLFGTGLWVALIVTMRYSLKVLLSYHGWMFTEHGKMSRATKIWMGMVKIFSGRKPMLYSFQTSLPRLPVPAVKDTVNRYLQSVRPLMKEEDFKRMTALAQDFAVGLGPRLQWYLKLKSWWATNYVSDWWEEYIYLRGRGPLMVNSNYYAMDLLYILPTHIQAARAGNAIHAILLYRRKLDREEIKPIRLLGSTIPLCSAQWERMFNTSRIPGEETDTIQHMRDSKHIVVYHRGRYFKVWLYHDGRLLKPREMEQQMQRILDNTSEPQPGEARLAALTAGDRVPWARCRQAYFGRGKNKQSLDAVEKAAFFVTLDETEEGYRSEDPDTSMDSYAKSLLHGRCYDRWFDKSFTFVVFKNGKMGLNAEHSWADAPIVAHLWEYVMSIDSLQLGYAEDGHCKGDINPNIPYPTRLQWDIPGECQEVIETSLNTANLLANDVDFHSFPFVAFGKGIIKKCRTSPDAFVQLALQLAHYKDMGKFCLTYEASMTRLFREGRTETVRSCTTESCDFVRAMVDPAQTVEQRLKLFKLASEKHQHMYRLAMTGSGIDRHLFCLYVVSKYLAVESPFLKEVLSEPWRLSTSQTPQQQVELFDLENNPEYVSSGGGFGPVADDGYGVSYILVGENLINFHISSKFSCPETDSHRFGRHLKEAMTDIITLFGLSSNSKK

[8] = SUPPLEMENTARY: Lipophilicity (log D) Determination by high-throughput shake-flask; type: physicochemical; conditions: octanol/water

IC50 [1]	IC50 [2]	solubility kinetic [3]	Papp [4]	IC50 [5]	IC50 [6]	IC50 [7]	logD [8]	SMILES
> 100000 nM	> 100000 nM	8 µg/mL (≈ 18.1 µM)	0.75 ×10⁻⁶ cm/s	45100 nM	85.2 nM	226 nM	2.38	COc1ccc(Cl)cc1S(=O)(=O)Nc1cccc(C#Cc2ccc(C(=O)O)cc2)c1
42100 nM	> 100000 nM	18 µg/mL (≈ 49.7 µM)	2.96 ×10⁻⁶ cm/s	9880 nM	169 nM	75.8 nM	2.85	NC(=O)c1ccc(C#C[C@H]2CCCCN2C(=O)COc2ccccc2)cc1
9730 nM	16000 nM	> 697 µg/mL	1.66 ×10⁻⁶ cm/s	2280 nM	182 nM	208 nM	0.09	COc1ccc(Cl)cc1S(=O)(=O)N1COc2ccc(C(=O)Nc3ccc(C(=O)O)c(Cl)c3)cc21
> 100000 nM	> 100000 nM	521 µg/mL (≈ 1060 µM)	0.03 ×10⁻⁶ cm/s	38000 nM	135 nM	136 nM	-1.22	COc1ccc(Cl)cc1S(=O)(=O)N1COc2ccc(C(=O)Nc3ccn(CC(=O)O)n3)cc21
6260 nM	7630 nM	46 µg/mL (≈ 110 µM)	6.44 ×10⁻⁶ cm/s	7620 nM	93.1 nM	99.8 nM	2.53	O=C(COc1ccccc1)N1CCCC[C@@H]1c1noc(-c2cccc3[nH][nH]c(=O)c23)n1
2460 nM	10000 nM	14 µg/mL (≈ 30.2 µM)	0.76 ×10⁻⁶ cm/s	2570 nM	27.2 nM	74.9 nM	2.21	Cc1cc(C)cc(S(=O)(=O)c2nn(C)c3ccc(C(=O)Nc4ccc(C(=O)O)cc4)cc23)c1
54600 nM	> 100000 nM	16 µg/mL (≈ 35.2 µM)	0.0275 ×10⁻⁶ cm/s	226 nM	21.8 nM	20.1 nM	0.5	O=C(Nc1ccc(-c2nnn[nH]2)cc1)c1cccc(NS(=O)(=O)c2cccc(Cl)c2)c1
> 100000 nM	> 100000 nM	> 526 µg/mL	0.23 ×10⁻⁶ cm/s	8100 nM	99.9 nM	84.7 nM	1.15	COc1ccc(Cl)cc1S(=O)(=O)N1CCc2ccc(C(=O)Nc3ccn(CC(=O)O)n3)cc21
43500 nM	41200 nM	78 µg/mL (≈ 181 µM)	1.75 ×10⁻⁶ cm/s	10400 nM	194 nM	165 nM	3.29	O=C(COc1ccncc1)N1CCCC[C@@H]1c1nnc(-c2cccc(C(F)(F)F)c2)[nH]1
> 100000 nM	> 100000 nM	181 µg/mL (≈ 414 µM)	4.32 ×10⁻⁶ cm/s	> 100000 nM	312 nM	332 nM	2.5	CC(=O)Nc1ccc(F)c(-c2n[nH]c([C@H]3CCCCN3C(=O)COc3ccccc3)n2)c1
57500 nM	62900 nM	69 µg/mL (≈ 154 µM)	2.23 ×10⁻⁶ cm/s	97000 nM	811 nM	52.3 nM	2.84	CCNC(=O)Nc1cccc(-c2n[nH]c([C@H]3CCCCN3C(=O)COc3ccccc3)n2)c1
18000 nM	> 100000 nM	10 µg/mL (≈ 23 µM)	3.91 ×10⁻⁶ cm/s	80800 nM	69.4 nM	55.7 nM	3.04	O=C1COc2ccc(-c3noc([C@H]4CCCCN4C(=O)COc4ccccc4)n3)cc2N1
> 100000 nM	> 100000 nM	4 µg/mL (≈ 8.7 µM)	4.38 ×10⁻⁶ cm/s	> 100000 nM	237 nM	270 nM	3.31	COc1ccc(Cl)cc1S(=O)(=O)N1CCOc2ncc(C(=O)Nc3ccccc3)cc21

SMILES	IC50 [1]	IC50 [2]	solubility kinetic [3]	Papp [4]	IC50 [5]	IC50 [6]	IC50 [7]	logD [8]
CN1CCN(C(=O)COc2ccccc2)[C@@H](c2nc(-c3ccc4[nH]nnc4c3)no2)C1	> 100000 nM	> 100000 nM	167 µg/mL (≈ 398 µM)	3.75 ×10⁻⁶ cm/s	> 100000 nM	265 nM	24.6 nM	1.86
